Measurements taken from PMC11995724, “Antibiotic target discovery by integrated phenotypic and activity-based profiling of electrophilic fragments” (Cell chemical biology, 2025).
Where a name gives a salt, the structure may show the parent alone.

Test: in vitro
Conditions: human, hek293t cells

`CC(Cl)C(=O)Nc1ccc(Cl)c(S(=O)(=O)N(C)C)c1` (stereo not shown) [5-G21, 2-chloro-N-[4-chloro-3-(dimethylsulfamoyl)phenyl]propanamide] showed a viability at 48 h, 25 µM of 78.5%.
Work on `O=C(CCl)NCC(=O)Nc1nccs1` [5-G22, 2-chloro-N-{[(1,3-thiazol-2-yl)carbamoyl]methyl}acetamide] yielded a viability at 48 h, 25 µM of 3.47%.
`CC(Oc1cccc(F)c1F)C(=O)N1CCN(C(=O)CCl)CC1` (stereo not shown) [5-H03, 1-[4-(2-chloroacetyl)piperazin-1-yl]-2-(2,3-difluorophenoxy)propan-1-one] gave a viability at 48 h, 25 µM of 1.67%.
With `CC(Cl)C(=O)N1CCc2ccccc21` (stereo not shown) [5-H04, 2-chloro-1-(2,3-dihydro-1H-indol-1-yl)propan-1-one] the viability at 48 h, 25 µM was 114%.
Compound `CC1=C(c2ccco2)CN(C(=O)CCl)CC1` [5-H05, 2-chloro-1-[5-(furan-2-yl)-4-methyl-1,2,3,6-tetrahydropyridin-1-yl]ethan-1-one] has a viability at 48 h, 25 µM of 69.1%.
Work on `CN(C(=O)CCl)C(c1ccccc1)c1ccccc1` [5-H06, 2-chloro-N-(diphenylmethyl)-N-methylacetamide] yielded a viability at 48 h, 25 µM of 0.0655%.
`CC1CSc2ccccc2N(C(=O)CCl)C1` (stereo not shown) [5-H07, 2-chloro-1-(3-methyl-2,3,4,5-tetrahydro-1,5-benzothiazepin-5-yl)ethan-1-one] showed a viability at 48 h, 25 µM of 0.825%.
With `CCN(Cc1ccc(C#N)cc1F)C(=O)CCl` [5-H08, 2-chloro-N-[(4-cyano-2-fluorophenyl)methyl]-N-ethylacetamide] the viability at 48 h, 25 µM was 0.591%.
In the case of `CC(Cl)C(=O)N1CCOCC1` (stereo not shown) [5-H09, 2-chloro-1-(morpholin-4-yl)propan-1-one], the viability at 48 h, 25 µM was 103%.
`CC(Cl)C(=O)Nc1ccc2ccccc2c1` (stereo not shown) [5-H10, 2-chloro-N-(naphthalen-2-yl)propanamide] gave a viability at 48 h, 25 µM of 90.7%.
In the case of `CCCN(CC1CC1)C(=O)CCl` [5-H11, 2-chloro-N-(cyclopropylmethyl)-N-propylacetamide], the viability at 48 h, 25 µM was 1.45%.
Work on `COc1ccc(CCNC(=O)CCl)cc1` [5-H12, 2-chloro-N-[2-(4-methoxyphenyl)ethyl]acetamide] yielded a viability at 48 h, 25 µM of 0.726%.
`COc1ccc(N(C(=O)CCl)C2C=CS(=O)(=O)C2)cc1` (stereo not shown) [5-H14, 2-chloro-N-(1,1-dioxo-2,3-dihydro-1lambda6-thiophen-3-yl)-N-(4-methoxyphenyl)acetamide] gave a viability at 48 h, 25 µM of 1.1%.
For `O=C(CCl)NC1CCCCCC1` [5-H16, 2-chloro-N-cycloheptylacetamide], the viability at 48 h, 25 µM was 17.7%.
For `Cc1csc(CN2CCN(C(=O)C(C)Cl)CC2)n1` (stereo not shown) [5-H17, 2-chloro-1-{4-[(4-methyl-1,3-thiazol-2-yl)methyl]piperazin-1-yl}propan-1-one], the viability at 48 h, 25 µM was 87.4%.
Work on `CC(Cl)C(=O)N1N=C(c2ccc(Cl)cc2)CC1c1ccco1` (stereo not shown) [5-H18, 2-chloro-1-[3-(4-chlorophenyl)-5-(furan-2-yl)-4,5-dihydro-1H-pyrazol-1-yl]propan-1-one] yielded a viability at 48 h, 25 µM of 78.1%.
`COc1ccccc1C(NC(=O)C(C)Cl)c1ccco1` (stereo not shown) [5-H19, 2-chloro-N-[(furan-2-yl)(2-methoxyphenyl)methyl]propanamide] gave a viability at 48 h, 25 µM of 120%.
For `CC(C)(C)N(Cc1ccccc1)C(=O)CCl` [5-H20, N-benzyl-N-tert-butyl-2-chloroacetamide], the viability at 48 h, 25 µM was 1.81%.
`CC(=O)N1CCC(N(Cc2cncs2)C(=O)C(C)Cl)CC1` (stereo not shown) [5-H21, N-(1-acetylpiperidin-4-yl)-2-chloro-N-[(1,3-thiazol-5-yl)methyl]propanamide] gave a viability at 48 h, 25 µM of 119%.
With `CC(Cl)C(=O)Nc1cccc(Cl)c1` (stereo not shown) [5-H22, 2-chloro-N-(3-chlorophenyl)propanamide] the viability at 48 h, 25 µM was 78%.
For `CCN(CC)C(=O)c1cccc(NC(=O)CCl)c1` [5-I03, 3-(2-chloroacetamido)-N,N-diethylbenzamide], the viability at 48 h, 25 µM was 0.175%.
Work on `O=C(CCl)Nc1cccc(OCc2ccccc2)c1` [5-I04, N-[3-(benzyloxy)phenyl]-2-chloroacetamide] yielded a viability at 48 h, 25 µM of 0.885%.
`CCOC(=O)C1=C(C)NC(=O)N(C(=O)CCl)C1c1ccccc1` (stereo not shown) [5-I05, ethyl 3-(2-chloroacetyl)-6-methyl-2-oxo-4-phenyl-1,2,3,4-tetrahydropyrimidine-5-carboxylate] showed a viability at 48 h, 25 µM of 44.7%.
Work on `O=C(CCl)N(Cc1ccccc1)Cc1ccc(F)cc1` [5-I06, N-benzyl-2-chloro-N-[(4-fluorophenyl)methyl]acetamide] yielded a viability at 48 h, 25 µM of 0.621%.
`CC(Cc1c[nH]c2cc(F)c(F)cc12)NC(=O)CCl` (stereo not shown) [5-I07, 2-chloro-N-[1-(5,6-difluoro-1H-indol-3-yl)propan-2-yl]acetamide] showed a viability at 48 h, 25 µM of 0.657%.
`CNC(=O)c1ccn(C2CCCN(C(=O)CCl)C2)n1` (stereo not shown) [5-I08, 1-[1-(2-chloroacetyl)piperidin-3-yl]-N-methyl-1H-pyrazole-3-carboxamide] gave a viability at 48 h, 25 µM of 1.61%.
With `Cc1cc(NS(=O)(=O)c2ccc(NC(=O)CCl)cc2)nc(C)n1` [5-I09, 2-chloro-N-{4-[(2,6-dimethylpyrimidin-4-yl)sulfamoyl]phenyl}acetamide] the viability at 48 h, 25 µM was 1.31%.
Work on `CC(c1ccccc1F)N1CCCC(NC(=O)CCl)C1=O` (stereo not shown) [5-I10, 2-chloro-N-{1-[1-(2-fluorophenyl)ethyl]-2-oxopiperidin-3-yl}acetamide] yielded a viability at 48 h, 25 µM of 80.5%.
Work on `Cc1cc(CN(C(=O)CCl)c2cn(C)nn2)ccc1Cl` [5-I12, 2-chloro-N-[(4-chloro-3-methylphenyl)methyl]-N-(1-methyl-1H-1,2,3-triazol-4-yl)acetamide] yielded a viability at 48 h, 25 µM of 13.7%.
With `CN(Cc1ccc(-c2ccc(Cl)cc2)o1)C(=O)CCl` [5-I13, 2-chloro-N-{[5-(4-chlorophenyl)furan-2-yl]methyl}-N-methylacetamide] the viability at 48 h, 25 µM was 16.8%.
`O=C(CCl)N(Cc1ccnn1C1CCC1)C1CC=CCC1` (stereo not shown) [5-I14, 2-chloro-N-[(1-cyclobutyl-1H-pyrazol-5-yl)methyl]-N-(cyclohex-3-en-1-yl)acetamide] gave a viability at 48 h, 25 µM of 0.326%.
`CC(Cl)C(=O)Nc1ccc([N+](=O)[O-])cc1C#N` (stereo not shown) [5-I15, 2-chloro-N-(2-cyano-4-nitrophenyl)propanamide] gave a viability at 48 h, 25 µM of 78.6%.
With `O=C(CCl)NC1CN(S(=O)(=O)c2ccc3c(c2)OCCO3)C1` [5-I16, 2-chloro-N-[1-(2,3-dihydro-1,4-benzodioxine-6-sulfonyl)azetidin-3-yl]acetamide] the viability at 48 h, 25 µM was 2.6%.
With `Cc1ccc(C2=NN(C(=O)CCl)C(c3cccs3)C2)o1` (stereo not shown) [5-I17, 2-chloro-1-[3-(5-methylfuran-2-yl)-5-(thiophen-2-yl)-4,5-dihydro-1H-pyrazol-1-yl]ethan-1-one] the viability at 48 h, 25 µM was 0.348%.
For `O=C(CCl)N1CCCCc2ccc([N+](=O)[O-])cc21` [5-I18, 2-chloro-1-(8-nitro-2,3,4,5-tetrahydro-1H-1-benzazepin-1-yl)ethan-1-one], the viability at 48 h, 25 µM was 1.56%.
For `CCN(C(=O)C(C)Cl)C1CCCCC1` (stereo not shown) [5-I19, 2-chloro-N-cyclohexyl-N-ethylpropanamide], the viability at 48 h, 25 µM was 134%.
Work on `COc1ccc(N(C(=O)CCl)C2CCS(=O)(=O)C2)cc1` (stereo not shown) [5-I20, 2-chloro-N-(1,1-dioxo-1lambda6-thiolan-3-yl)-N-(4-methoxyphenyl)acetamide] yielded a viability at 48 h, 25 µM of 2.54%.
`CC(Cl)C(=O)NC(=O)Nc1ccccc1` (stereo not shown) [5-I21, 3-(2-chloropropanoyl)-1-phenylurea] gave a viability at 48 h, 25 µM of 92.7%.
Work on `N#Cc1cccc(NC2CCN(C(=O)CCl)C2)c1` (stereo not shown) [5-I22, 3-{[1-(2-chloroacetyl)pyrrolidin-3-yl]amino}benzonitrile] yielded a viability at 48 h, 25 µM of 2.25%.
In the case of `CN(C(=O)c1ccccc1)C1CC2CCC(C1)N2C(=O)CCl` (stereo not shown) [5-J03, N-[8-(2-chloroacetyl)-8-azabicyclo[3.2.1]octan-3-yl]-N-methylbenzamide], the viability at 48 h, 25 µM was 1.62%.
For `CC(Cl)C(=O)N(C)C1CCCCC1` (stereo not shown) [5-J04, 2-chloro-N-cyclohexyl-N-methylpropanamide], the viability at 48 h, 25 µM was 94.1%.
With `CC1CSc2ccc(Cl)cc2N(C(=O)CCl)C1` (stereo not shown) [5-J05, 2-chloro-1-(7-chloro-3-methyl-2,3,4,5-tetrahydro-1,5-benzothiazepin-5-yl)ethan-1-one] the viability at 48 h, 25 µM was 1.21%.
In the case of `O=C(CCl)NCC1CCCCC1` [5-J06, 2-chloro-N-(cyclohexylmethyl)acetamide], the viability at 48 h, 25 µM was 52.1%.
`CC1CCN(C(=O)CCl)c2cc(C(F)(F)F)ccc2S1` (stereo not shown) [5-J07, 2-chloro-1-[2-methyl-7-(trifluoromethyl)-2,3,4,5-tetrahydro-1,5-benzothiazepin-5-yl]ethan-1-one] showed a viability at 48 h, 25 µM of 0.306%.
`CCN(c1ccc(NC(=O)CCl)cc1)C(C)C` [5-J08, 2-chloro-N-{4-[ethyl(propan-2-yl)amino]phenyl}acetamide hydrochloride] showed a viability at 48 h, 25 µM of 3.48%.
`CCCN(Cc1ccc(C)cc1)C(=O)CCl` [5-J09, 2-chloro-N-[(4-methylphenyl)methyl]-N-propylacetamide] showed a viability at 48 h, 25 µM of 0.952%.
For `O=C(CCl)NCCCN1CCCCCC1=O` [5-J10, 2-chloro-N-[3-(2-oxoazepan-1-yl)propyl]acetamide], the viability at 48 h, 25 µM was 119%.
`CN(C)S(=O)(=O)c1ccc(NC(=O)CCl)cc1` [5-J11, 2-chloro-N-[4-(dimethylsulfamoyl)phenyl]acetamide] gave a viability at 48 h, 25 µM of 1.08%.
With `CCN(CC)S(=O)(=O)c1ccc(Cl)c(NC(=O)CCl)c1` [5-J12, 2-chloro-N-[2-chloro-5-(diethylsulfamoyl)phenyl]acetamide] the viability at 48 h, 25 µM was 0.662%.
`Cc1nn(CC(F)(F)F)c(C)c1C1COCCN1C(=O)CCl` (stereo not shown) [5-J13, 2-chloro-1-{3-[3,5-dimethyl-1-(2,2,2-trifluoroethyl)-1H-pyrazol-4-yl]morpholin-4-yl}ethan-1-one] showed a viability at 48 h, 25 µM of 2.86%.
With `O=C(CCl)Nc1cccc(CN2CCSCC2)c1` [5-J14, 2-chloro-N-{3-[(thiomorpholin-4-yl)methyl]phenyl}acetamide hydrochloride] the viability at 48 h, 25 µM was 1.12%.
`Cc1ncc(CNC(=O)C(C)Cl)n1C` (stereo not shown) [5-J15, 2-chloro-N-[(1,2-dimethyl-1H-imidazol-5-yl)methyl]propanamide] showed a viability at 48 h, 25 µM of 106%.
For `CCN(Cc1cccc(C)c1)C(=O)CCl` [5-J16, 2-chloro-N-ethyl-N-[(3-methylphenyl)methyl]acetamide], the viability at 48 h, 25 µM was 1.39%.
For `CC(Cl)C(=O)NC(C)(C(N)=O)c1cccc(Cl)c1` (stereo not shown) [5-J17, 2-(3-chlorophenyl)-2-(2-chloropropanamido)propanamide], the viability at 48 h, 25 µM was 125%.
`COc1ccc(CNC(=O)C(C)Cl)cc1` (stereo not shown) [5-J18, 2-chloro-N-[(4-methoxyphenyl)methyl]propanamide] showed a viability at 48 h, 25 µM of 98.5%.
